Experimental data as given in the supplement of paper PMC11208160.

assay: recombinant barcode read abundance after kanamycin selection (control-corrected) (log10(CPM+1)); higher = more efficient recombination; sequences stand for … in AGTGCAGAGAAAATCGGCCAGTTTTCTCTGCCTGCAGTCCGCATGCCGT…AGATTTATGCAGCGGACTGCCTTTCTCCCAAAGTGATAAACCGGACAGTATCATGGACCGGTTTTCCCGGTAATCCGTATTTGCAAGGTTGGTTTCACT; site = the 11-nt target
Method in brief: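 Recombination efficiency was calculated from barcode counts at recombinant junctions, normalized to counts per million, averaged and corrected by the control. Each value is given as log10(CPM+1). The constructs were Gibson-cloned oligos (promoter, target, barcode, J23119-driven first 104 bridge RNA bases) in a vector with the remaining 73 bp and a T7-inducible recombinase, co-electroporated into E. coli with a donor plasmid and plated in duplicate on chloramphenicol/ampicillin LB agar (control) or chloramphenicol/ampicillin/kanamycin with 0.1 mM IPTG.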
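Further: IS621 recombinase and bridge RNA in Escherichia coli cells.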

“TCTCATTCTTGGGTTCTAACCTGTTGCGT (site TCTAATTCTAC)” and “CGTGGGGCTTGGGTTCTAACCTGTTGCCT (site CGTATGGCTAG)” are within 0.2 log units of each other in “recombinant barcode read abundance (log10)” value: 0.0146 for the first, 0.075 for the second.

First: CAATGGTCTTGGGTTCTAACCTGTTGCAT (site CAATGGTCTAC)
Second: TCGTGAGCTTGGGTTCTAACCTGTTGCCT (site TCGTGAGCTAG)
The “recombinant barcode read abundance (log10)” value of the first is higher: 0.476 for the first, 0.226 for the second.

Going from “CACTTACCTTGGGTTCTAACCTGTTGCCT (site CACTTAACTAG)” to “GTTTGGCCTTGGGTTCTAACCTGTTGCTT (site GTTTGGCCTAA)”, the “recombinant barcode read abundance (log10)” value rises from 0.0847 to 0.541.

Compared with “AATACCTCTTGGGTTCTAACCTGTTGCCT (site ACTACCTCTAG)”, “CCGTCACCTTGGGTTCTAACCTGTTGCCT (site ACGTCACCTAG)” is higher in “recombinant barcode read abundance (log10)” value: 0.0183 for the first, 0.264 for the second.

“CAAGTAGCTTGGGTTCTAACCTGTTGCCT (site CAAGTGGCTAG)” and “GCCTGAGCTTGGGTTCTAACCTGTTGCCT (site GCCTGAGCTAG)” are within 0.2 log units of each other in “recombinant barcode read abundance (log10)” value: 0.183 for the first, 0.303 for the second.

First: GGCCGGGCTTGGGTTCTAACCTGTTGCGG (site GCCCGGGCTCC)
Second: CATGACACTTGGGTTCTAACCTGTTGCCT (site CATGACACTAG)
The “recombinant barcode read abundance (log10)” value of the first is lower: 0.286 for the first, 2.45 for the second.

First: TAGGACACTTGGGTTCTAACCTGTTGCGT (site TAGGAGACTAC)
Second: CTCGTCACTTGGGTTCTAACCTGTTGCCT (site CTCGTCACTAG)
The “recombinant barcode read abundance (log10)” value of the first is lower: 0.1 for the first, 1.91 for the second.

Going from “GACTTGCCTTGGGTTCTAACCTGTTGCAT (site GACTTTCCTAT)” to “GTCAAGACTTGGGTTCTAACCTGTTGCCG (site GTCAAGACTTG)”, the “recombinant barcode read abundance (log10)” value falls from 0.813 to 0.462.

Going from “GTGGGAACTTGGGTTCTAACCTGTTGCTT (site GTGGGAACTAA)” to “GACATCACTTGGGTTCTAACCTGTTGCCT (site GACATCACTAG)”, the “recombinant barcode read abundance (log10)” value falls from 1.97 to 0.767.

Going from “GAGGGTCCTTGGGTTCTAACCTGTTGCAT (site GAGGGTCCTAC)” to “ACACACCCTTGGGTTCTAACCTGTTGCGG (site ACACACCCTCC)”, the “recombinant barcode read abundance (log10)” value rises from 0.542 to 2.53.

Compared with “ACCGGGACTTGGGTTCTAACCTGTTGCCT (site ACCGGGACTAG)”, “ACGCATCCTTGGGTTCTAACCTGTTGCCT (site AGGCATCCTAG)” is lower in “recombinant barcode read abundance (log10)” value: 1.14 for the first, 0.0797 for the second.

“GGCTTCCCTTGGGTTCTAACCTGTTGCCT (site GGCGTCCCTAG)” and “TCGTGCCCTTGGGTTCTAACCTGTTGCCT (site TCGTGCTCTAG)” are within 0.2 log units of each other in “recombinant barcode read abundance (log10)” value: 0.141 for the first, 0.0522 for the second.

First: TTGCTAACTTGGGTTCTAACCTGTTGCCT (site TTGCGAACTAG)
Second: GGCGAGTCTTGGGTTCTAACCTGTTGCTA (site GGCGAGTCTTA)
The “recombinant barcode read abundance (log10)” value of the first is lower: 0.0431 for the first, 1.64 for the second.

“CAGGTGCCTTGGGTTCTAACCTGTTGCCT (site CCGGTGCCTAG)” and “ACTAACACTTGGGTTCTAACCTGTTGCCT (site GCTAACACTAG)” are within 0.2 log units of each other in “recombinant barcode read abundance (log10)” value: 0.216 for the first, 0.0913 for the second.

First: CTTGACACTTGGGTTCTAACCTGTTGCCT (site CTAGACACTAG)
Second: CTAACTCCTTGGGTTCTAACCTGTTGCAT (site CTAAGTCCTAT)
The “recombinant barcode read abundance (log10)” value of the first is higher: 1.2 for the first, 0.0705 for the second.

“GCACCTGCTTGGGTTCTAACCTGTTGCCT (site TATTTGCCTCA)” and “GGTTAGTCTTGGGTTCTAACCTGTTGCCG (site ACGGCTACTAA)” are within 0.2 log units of each other in “recombinant barcode read abundance (log10)” value: 0.238 for the first, 0.147 for the second.

First: ACATGTCCTTGGGTTCTAACCTGTTGCGT (site ACATGTCCTAC)
Second: CAATTGTCTTGGGTTCTAACCTGTTGCGT (site CAATTGTCTAC)
The “recombinant barcode read abundance (log10)” value of the first is lower: 2.39 for the first, 3.47 for the second.

Compared with “GTCCAGACTTGGGTTCTAACCTGTTGCCT (site GTACAGACTAG)”, “TAGCATACTTGGGTTCTAACCTGTTGCCG (site TAGCATACTAG)” is lower in “recombinant barcode read abundance (log10)” value: 0.92 for the first, 0.271 for the second.

“GTGAGTCCTTGGGTTCTAACCTGTTGCGG (site GTAAGTCCTTC)” and “AGCGAATCTTGGGTTCTAACCTGTTGCCG (site AGCGAATCTCG)” are within 0.2 log units of each other in “recombinant barcode read abundance (log10)” value: 0.24 for the first, 0.217 for the second.

Going from “CATTGGACTTGGGTTCTAACCTGTTGCTT (site CATTGGACTAA)” to “GCAATGACTTGGGTTCTAACCTGTTGCCT (site GCAATGACTAG)”, the “recombinant barcode read abundance (log10)” value rises from 0.371 to 1.88.

Compared with “CGCTCGTCTTGGGTTCTAACCTGTTGCCT (site CGCTGGTCTAG)”, “CCAAAGACTTGGGTTCTAACCTGTTGCAT (site CTAAAGACTGT)” is higher in “recombinant barcode read abundance (log10)” value: 0.0376 for the first, 0.334 for the second.

With “CACTTAACTTGGGTTCTAACCTGTTGCCA (site TGACAGTCTCT)” the “recombinant barcode read abundance (log10)” value was 0.0672.
